A short description of data set [1]: Rotating membrane diffusion cell experiments (permeation through PDMS membrane). Conditions: for LAG TIME (PRED.): predicted from Crank's method (Equation 16); for LAG TIME (EXP.): time to steady state transport across the membrane, linear regression of concentration versus time.
A short description of data set [2]: Partition coefficient measurements in PDMS membranes. Type of data set: physicochemical. Conditions: intrinsic non-ionized partition coefficient, N = 5. As to the method:
For each drug, five membranes were prepared. Each membrane was prepared with 10 parts base to 1 part curing agent and cured at 20° C. for at least 72 hours. Once cured, the membranes were sectioned using a template and razor blade. The dimensions of the perimeter and thickness were measured using a caliper to determine the volume of membrane. After determining membrane density, subsequent volume measurements were made using the density relationship. Stock solution was distributed to 5 sample vials with 1 membrane-free vial to serve as a control. The time zero point was measured from the blank vial and time points and 1 mL samples were taken at 12 and 24 hours. The collected samples were assayed in duplicate by HPLC. Bulk transport properties of PDMS were measured to evaluate PDMS fitness for the mimicking human oral absorption. The partition coefficient was calculated according to Equation 4. K=Partition coefficient Cmem*=Equilibrium concentration of drug in membrane Caq*=Equilibrium concentration of drug in the aqueous media

The conditions of data set [3]: not told.
Data set [4] can be described thus: Mass increase of PDMS membranes after equilibrium partitioning with ibuprofen. Type of data set: physicochemical. Here is the method:
Ibuprofen was chosen as a model drug because of its high lipophilicity and the ability to measure the difference in mass of drug in the membrane before and after the partitioning experiment. There was no statistical difference in the positronium lifetimes, but there was a 1.76 mg±0.12 mg (n=7) mass increase in 25% by mass curing agent PDMS membranes, and a 2.90 mg±0.38 mg (n=6) mass increase in […] by mass curing agent PDMS membranes.

Data set [5] is described as follows: physchem. As to conditions: pH 2, aqueous buffer, thermodynamic from solid. As to the method:
Five 1.5 mL centrifuge tubes were labeled and prepared with 1 mL of the appropriate non-ionizing buffer (see Table 5). Solid drug in powder form was added to each individual vial and then vortexed. The addition of drug and vortex mixing was repeated until there was visible undissolved drug powder present. The centrifuge tubes were then put into a hot box where they remained at an aqueous temperature of 37° C. (set point 43° C.). The internal temperature was determined by measuring the temperature of a “blank” tube in the rack. Once the internal temperature reached 37° C., the tubes were held at 37° C. for 48 hours. The tubes were removed from the hot box and centrifuged at 17,000G for 3 hours. The tubes cooled below 37° C. during the centrifugation so the tubes were re-inserted into the hot box and allowed to reach 37° C. over the course of 1 hour. Supernatant was then extracted directly from the tube in the hot box without disturbing the pellet. The supernatant was appropriately diluted for HPLC analysis.
In each permeation experiment, the donor-phase-containing drug was at a non-ionizing pH if the drug was ionizable and the receiver phase was at a completely ionizing (>99%) pH. […] Progesterone solubility was determined twice, the second time as an analytical check.

Data set [6] is classed as physicochemical. As to the method:
This experiment was conducted in a manner similar to the experiment described in “Partition Coefficient Measurements”, above. […] Four different mass % of curing agents (4.9%, 9.1%, 16%, and 25%) were examined at two different pH conditions (2.00 HCl 13 mM & 6.50 phosphate 50 mM). The Log DPDMS was measured as a function of pH at pH 2.00, 5.00, 6.45, and 12.00 using 13 mM HCl, 50 mM acetate, 50 mM phosphate, and 39 mM NaOH buffers, respectively, at RT (FIG. 5C).

Data set [7] in a line: Equilibrium partition coefficient of ibuprofen into VeroClear resin spheres. Type of data set: physicochemical. Conditions: pH 2 in VeroClear, 10 mm diameter spheres.
A short description of data set [8]: UTLAM diffusion cell dissolution/absorption experiment. Type of data set: in vitro ADME. Conditions: 57 micron PDMS UTLAM, donor 50 mM phosphate pH 6.5, receiver pH 8.0, 37° C., 50 rpm, 162 mg dose. As to the method: According to the SEM freeze-fracture-determined thickness based on the terminal rotational speed and mass fraction of PDMS, the membranes tested in the following experiments were 57 microns thick. 130 mL of 50 mM phosphate buffer pH 6.5 was degas sed and used as the donor phase, while 100 mL of 50 mM phosphate buffer pH 8.0 was degas sed and used as the receiver phase. The rationale behind this is that PDMS has poor ability to transport ions (a […] pH-partition relationship) and the more ionized the drug is, the less driving force the drug will provide for reverse transport out of the receiver phase. […] Ultimately, this leads to a […] transport rate of ibuprofen returning to the donor compartment. […] It is understood that the measured absorption rate is […] due the additional partitioning kinetics introduced by the resin that forms the UTLAM device. […] Physiologically, it is understood that the bicarbonate buffer bulk pH and buffer capacity are lower in the duodenum and jejunum than that of the USP 2 dissolution test. […]
The PDMS UTLAM is floated in deionized water and in about two hours the PVA is dissolved enough to tease the PDMS UTLAM to the surface of the water. […] Equivalent stirring rates could be calculated for the USP 2 paddle using CFD measurements made in COMSOL. […]

For data set [9] the following is noted: literature values (refs 6, 41); cited from earlier work.
[10] abbreviates: average PDMS KD divided by 10^LogK for PDMS.

≈ marks a conversion by molar mass, not a printed value. Counter-ions that a name gives are not always drawn. Like-named read-outs stand apart in the source and are kept apart here.

These results are taken from patent publication US20200232961A1, “CHARACTERIZATION AND APPLICATION OF POLYMERS FOR IN VIVO RELEVANT DRUG ABSORPTION CHARACTERIZATION IN VITRO” (priority 2017, published 2020).

Usually solubility (thermodynamic) stands for the concentration in solution at equilibrium with solid. In general, pKa refers to the negative logarithm of the acid dissociation constant.

`O=C(O)c1ccccc1` [BENZOIC ACID, Benzoic Acid]: in data set [1], the “LAG TIME (PRED.)” value is 238 min and the “LAG TIME (EXP.)” value was found to be 25 min. The “PDMS LOGK” value in data set [2] was 0.10.

Take `Cn1c(=O)c2c(ncn2C)n(C)c1=O` [CAFFEINE, Caffeine]: the “PARTITION I[…]. COEFF (K*D)/10^LOGK^PDMS” value in data set [1] (setting [10]) was 1.70 × 10^−8 CM^2 S^−1. Besides, in data set [3], the “AVG. PDMS (K*D)” value was 6.02 × 10^−10 CM^2 S^−1 and the “LAG TIME (PRED.)” value came out at 571 min.

Turning to `CC(C)Cc1ccc(C(C)C(=O)O)cc1` (stereo not drawn) [IBUPROFEN, Ibuprofen], the “mass increase of PDMS membrane after equilibrium partitioning” value in [4] (3.2% by mass curing agent PDMS membranes, n=6) turned out to be 2.90 mg. For the same compound, the “mass increase of PDMS membrane after equilibrium partitioning” value in data set [4] (25% by mass curing agent PDMS membranes, n=7) was 1.76 mg. In addition, in [1] (setting [10]), the “PARTITION INDEPENDENT DIFF. COEFF (K*D)/10^LOGK^PDMS” value was 2.99 × 10^−7 CM^2 S^−1. This compound also yielded a solubility (thermodynamic) at 48 h in data set [5] (NON-IONIZED SOLUBILITY) of 60 mg/mL (≈ 291 mM). Further, in [6], the “MEASURED PDMS LOGPU ± SE” value is given as 1.81. In addition, in [6] (calculated to fit equation 6 using data at pH 11.81 and fu~0), the “PI EQ. 6” value is on record as 0.008. The “MEASURED PDMS PU ± SE” value in data set [6] (intrinsic non-ionized partition coefficient, N = 15) turned out to be 65. Also, the “K (partition coefficient) in PDMS” value in [6] (pH 2) was determined as 65. In data set [6] (pH 11.81), the “MEASURED PDMS LOGPI ± SE” value is on record as −0.286. The “K (equilibrium partition coefficient) in VeroClear” value in data set [7] is listed as 86. Also, the “PDMS LOGK” value in [2] was found to be 1.79. In addition, in [3], the “AVG. PDMS (K*D)” value is recorded as 1.83 × 10^−5 CM^2 S^−1 and the “LAG TIME (PRED.)” value was found to be 158 min. The “absorption rate (net flux)” value in [8] is “within the same order of magnitude of ibuprofen absorption in human beings”.

For the compound `CC(C(=O)O)c1cccc(C(=O)c2ccccc2)c1` (stereo not drawn) [KETOPROFEN, Ketoprofen], the “PARTITION INDEPENDENT DIFF. COEFF (K*D)/10^LOGK^PDMS” value in data set [1] (setting [10]) is on record as 2.58 × 10^−8 CM^2 S^−1. Moreover, the “AVG. PDMS (K*D)” value in [1] (non-ionized drug, donor/receiver buffer I/III as printed, 37° C., 150 rpm) is 9.46 × 10^−8 CM^2 S^−1. Further, in data set [1], the “LAG TIME (PRED.)” value was 482 min and the “LAG TIME (EXP.)” value is 232 min. Besides, in data set [2], the “PDMS LOGK” value turned out to be 0.56. In addition, the pKa in data set [9] was 3.89.

Consider `COCCc1ccc(OCC(O)CNC(C)C)cc1` (stereo not drawn) [METOPROLOL TARTRATE, Metoprolol Tartrate], for which the “PDMS LOGK” value in data set [2] stood at 0.68.

`CC(=O)[C@H]1CC[C@H]2[C@@H]3CCC4=CC(=O)CC[C@]4(C)[C@H]3CC[C@]12C` [PROGESTERONE, Progesterone]: the “PARTITION INDEPENDENT DIFF. COEFF (K*D)/10^LOGK^PDMS” value in [1] (setting [10]) was 1.07 × 10^−7 CM^2 S^−1. Further, in data set [5] (13 mM hydrochloric acid buffer, NON-IONIZED SOLUBILITY (ANALY. COMP.), second determination as analytical check with different dilution, pH 2.00 13 mM hydrochloric acid buffer at 37° C.), the solubility (thermodynamic) at 48 h was determined as 20.9 mg/mL (≈ 66.5 mM). The compound also showed a thermodynamic solubility at 48 h in data set [5] (13 mM hydrochloric acid buffer, NON-IONIZED SOLUBILITY, I = pH 2.00 13 mM hydrochloric acid buffer at 37° C.) of 21.3 mg/mL (≈ 67.7 mM). In data set [2], the “PDMS LOGK” value is 2.03. In data set [3], the “AVG. PDMS (K*D)” value is reported as 1.14 × 10^−5 CM^2 S^−1 and the “LAG TIME (PRED.)” value turned out to be 158 min.
